Assay results taken from PubChem BioAssay (NCI).
Several values for one entry are separate records, joined by “and”; a condition that tells them apart may be missing. Equal values may be shown once.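 Step 1: Grow cells in 96-well plates. Step 2: Expose to compound for 48 hours at 5 concentrations. Step 3: Interpolate endpoints linearly; if unreached, use highest concentration. GI50 = concentration required for 50% inhibition of growth. TGI: concentration producing complete growth inhibition.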

Tests used:
Experiment in all cases: DTP human tumour cell line panel, 48 h
OVCAR-3 ovarian = system: OVCAR-3 ovarian
T-47D breast = system: T-47D breast
M14 melanoma = system: M14 melanoma
TK-10 renal = system: TK-10 renal
U251 CNS = system: U251 CNS
MDA-MB-435 = system: MDA-MB-435
HS 578T breast = system: HS 578T breast
KM12 colon = system: KM12 colon
UACC-257 melanoma = system: UACC-257 melanoma
OVCAR-4 ovarian = system: OVCAR-4 ovarian

| Structure (SMILES) | TGI (OVCAR-3 ovarian) | TGI (T-47D breast) | TGI (M14 melanoma) | TGI (TK-10 renal) | TGI (U251 CNS) | TGI (MDA-MB-435) | TGI (HS 578T breast) | TGI (KM12 colon) | TGI (UACC-257 melanoma) | GI50 (OVCAR-4 ovarian) | TGI (OVCAR-4 ovarian) | GI50 (OVCAR-3 ovarian) | GI50 (T-47D breast) | GI50 (M14 melanoma) | GI50 (TK-10 renal) | GI50 (U251 CNS) | GI50 (MDA-MB-435) | GI50 (KM12 colon) | GI50 (UACC-257 melanoma) | GI50 (HS 578T breast) |
| --- | --- | --- | --- | --- | --- | --- | --- | --- | --- | --- | --- | --- | --- | --- | --- | --- | --- | --- | --- | --- |
| OC(COC(c1ccccc1)(c1ccccc1)c1ccccc1)C(O)CC1SCCS1 (stereo not given) | 62.9 µM | 58.3 µM | 84.3 µM | 39.6 µM | 62.4 µM | 91.9 µM | 39.7 µM | 29.8 µM | 51.8 µM | – | – | – | – | – | – | – | – | – | – | – |
| COc1ccc(/C(COc2ccc3oc(-c4ccccc4)cc(=O)c3c2)=N\O)cc1 | 0.0538 µM | > 50 µM | > 50 µM | 9.75 µM | 12.2 µM | < 0.005 µM | – | 1.89 µM | – | 10.4 µM | > 29.9 µM | < 0.005 µM | 2.41 µM | 0.321 µM | 0.149 µM | 0.13 µM | < 0.005 µM | 0.0245 µM | 0.316 µM | – |
| CC(=O)Nc1c(Nc2ccccc2)[nH]c(C)nc1=S | > 100 µM | – | > 100 µM | > 100 µM | – | – | – | > 100 µM | > 100 µM | – | > 100 µM | – | – | – | – | – | – | – | – | – |
| c1ccc2c3c([nH]c2c1)[C@H]1C2CCCCN2CN1CC3 (stereo not given in full) | > 100 µM | – | > 100 µM | > 100 µM | > 100 µM | – | – | – | > 100 µM | – | > 100 µM | – | – | – | – | – | – | – | – | – |
| CCCCCCCCCCCCCC[N+](C)(C)CCCCCCCCCCCCCC | 20.5 µM | 7.73 µM | – | 7.03 µM | – | – | 24.8 µM | – | 8.61 µM | – | – | 3.58 µM | 2.2 µM | – | 2.53 µM | – | – | – | 2.49 µM | 5.65 µM |
| COc1ccc2c(c1OC)CO[C@@H]2[C@H]1c2c(cc3c(c2OC)OCO3)CCN1S(=O)(=O)c1cn(C)cn1 | 4.83 µM | > 100 µM | > 100 µM | > 100 µM | > 100 µM | – | – | > 100 µM | > 100 µM | 6.65 µM | > 100 µM | 1.59 µM | 16.9 µM | 0.513 µM | > 100 µM | 2.24 µM | – | 0.684 µM | 9.43 µM | – |
| CNC(=O)c1c(NC(=O)c2ccc(C(C)(C)C)cc2)sc2c(CN(C)C)c(O)ccc12 | – | – | 3.54 µM | 3.94 µM | – | 3.34 µM | 4.56 µM | 3.2 µM | 4.09 µM | – | – | – | – | 1.74 µM | 1.94 µM | – | 1.8 µM | 1.78 µM | 1.95 µM | 2.02 µM |
| CC1/C(=N\O)CC(c2ccccc2)N(C)C1c1ccccc1 (stereo not given) | > 100 µM | – | > 100 µM | > 100 µM | > 100 µM | – | – | > 100 µM | > 100 µM | – | > 100 µM | – | – | – | – | – | – | – | – | – |
| COc1ccc(CN2c3ccccc3Sc3ccccc32)c(C(F)(F)F)c1 | 24.3 µM | – | > 100 µM | > 100 µM | 27.4 µM | – | > 100 µM | – | – | 2.17 µM | > 100 µM | 0.513 µM | – | 0.446 µM | 5.82 µM | 0.431 µM | – | – | – | 0.877 µM |
| CN(C)CCNC(=O)c1cccc2cc3c(Cl)cccc3nc12 | 4.9 µM | – | – | 7.66 µM | 6.3 µM | – | – | 7.28 µM | 3.99 µM | – | 8.15 µM | – | – | – | – | – | – | – | – | – |
| COc1ccc(Cc2coc3ccccc3c2=O)cc1OC | > 100 µM | > 100 µM | > 100 µM | > 100 µM | > 100 µM | > 100 µM | > 100 µM | – | > 100 µM | – | > 100 µM | – | – | – | – | – | – | – | – | – |
| CCOC(=O)C(=O)CC1=Nc2ccccc2SC(c2cccc(C)c2)C1 (stereo not given) | 34 µM | – | 35.3 µM | – | 31 µM | – | – | 30.9 µM | 33.2 µM | – | 32 µM | – | – | – | – | – | – | – | – | – |
| CCCCCCCCCCCCCCCCCCn1cc[n+](C)c1 | 1.27 µM | 2.96 µM and 3.31 µM | – | 1.97 µM and 1.44 µM | 1.51 µM | – | 1.8 µM | 0.879 µM | 3.91 µM | 0.645 µM and 0.518 µM | – | 0.366 µM | 0.403 µM and 0.433 µM | – | 0.47 µM and 0.26 µM | 0.372 µM and 0.397 µM | – | 0.275 µM | 1.53 µM | 0.335 µM |
| O=C(Nc1ccccc1)Nc1ccc2cc3ccc(NC(=O)Nc4ccccc4)cc3nc2c1 | 2.45 µM | 3.08 µM | – | 9.12 µM | 2.28 µM | 3.15 µM | 3.47 µM | 4.07 µM | – | 1.12 µM | 2.42 µM | 1.1 µM | 1.53 µM | – | 3.98 µM | 0.978 µM | 1.68 µM | 1.47 µM | – | 1.53 µM |
| COc1ccc(-c2nc(-c3ccc(C)cc3)cn3ccnc23)cc1 | > 50 µM | > 50 µM | > 50 µM | > 50 µM | > 50 µM | > 50 µM | > 50 µM | > 50 µM | 25.8 µM | – | – | 4.46 µM | > 50 µM | 3.23 µM | 20.6 µM | 3.42 µM | 1.76 µM | 3.25 µM | 9.54 µM | 20.4 µM |
| CCc1cccc(C)c1NC(=O)C(=O)CC(=O)c1ccc(Cl)s1 | – | – | > 100 µM | > 100 µM | > 100 µM | – | – | > 100 µM | > 100 µM | – | > 100 µM | – | – | – | – | – | – | – | – | – |
| Cc1csc2[n+]1-c1ccccc1N(C(=O)Nc1ccccc1)C(C)C2 (stereo not given) | > 100 µM | > 100 µM | > 100 µM | > 100 µM | > 100 µM | > 100 µM | > 100 µM | > 100 µM | > 100 µM | – | – | > 100 µM | > 100 µM | 43.7 µM | > 100 µM | 69.4 µM | > 100 µM | > 100 µM | > 100 µM | > 100 µM |
| O=[N+]([O-])C=C(c1ccc(Cl)cc1)c1ccc(Cl)cc1 | – | – | 30.5 µM | 33.5 µM | 29.8 µM | – | – | 30.1 µM | 36.9 µM | – | 27.6 µM | – | – | – | – | – | – | – | – | – |
| CN(C)C(=N/O)/C(=N\O)N(C)C | – | – | > 100 µM | > 100 µM | > 100 µM | – | – | > 100 µM | > 100 µM | – | > 100 µM | – | – | – | – | – | – | – | – | – |
| CCOP(=O)(OCC)C1CCCOC1=O (stereo not given) | > 100 µM | – | > 100 µM | > 100 µM | > 100 µM | – | – | > 100 µM | > 100 µM | – | > 100 µM | – | – | – | – | – | – | – | – | – |
| c1ccc(C2OC3(CCC[C@H]4C[C@H]43)O[C@H]2c2ccccc2)cc1 (stereo not given in full) | > 100 µM | – | > 100 µM | > 100 µM | > 100 µM | – | – | > 100 µM | 77.7 µM | – | > 100 µM | – | – | – | – | – | – | – | – | – |
